These are literature values, as cited in patent publication US8455478B2, “Rapid onset liquid midazolam composition for buccal administration” (Special Products, Ltd., priority 2010, dated 2013).

The conditions of this data set: pH 8, aqueous solution.

On to `Cc1ncc2n1-c1ccc(Cl)cc1C(c1ccccc1F)=NC2` [midazolam, 8-chloro-6-(2-fluorophenyl)-1-methyl-4H-imidazo[1,5-a][1,4]], for which the solubility of midazolam was 55 µg/mL.
